{"source": "patent US20200000825A1", "about": "“METHODS AND COMPOSITIONS FOR TREATING AND PREVENTING VIRAL INFECTIONS” (ENTERIN LABORATORIES, INC., priority 2009, published 2020)", "key": {"Human Oct 1": {"biological_target": "T1, Human Oct 1 (Homo sapiens, UniProt O15245)", "T1 sequence (O15245 1-554)": "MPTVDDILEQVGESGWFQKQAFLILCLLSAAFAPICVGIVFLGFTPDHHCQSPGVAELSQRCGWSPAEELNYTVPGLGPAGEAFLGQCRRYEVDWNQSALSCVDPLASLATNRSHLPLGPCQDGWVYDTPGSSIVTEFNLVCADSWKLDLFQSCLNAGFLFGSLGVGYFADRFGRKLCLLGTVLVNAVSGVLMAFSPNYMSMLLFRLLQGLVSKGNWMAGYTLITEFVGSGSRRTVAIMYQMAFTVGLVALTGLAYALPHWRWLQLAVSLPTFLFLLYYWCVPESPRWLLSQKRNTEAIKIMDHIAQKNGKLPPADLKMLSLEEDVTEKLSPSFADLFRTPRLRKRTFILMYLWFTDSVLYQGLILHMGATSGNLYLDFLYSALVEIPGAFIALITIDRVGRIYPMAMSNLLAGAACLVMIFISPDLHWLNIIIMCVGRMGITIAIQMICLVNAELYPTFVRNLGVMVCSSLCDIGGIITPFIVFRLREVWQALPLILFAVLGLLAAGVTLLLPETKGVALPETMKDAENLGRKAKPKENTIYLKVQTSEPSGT", "assay": "MPP uptake inhibition (transport competition) assay in CHO cells over-expressing a human Oct transporter", "type": "cell-based", "method": "(§1) This example determines whether squalamine is a substrate for the organic cation transporter (Oct). This determination employed a standard transport competition assay, described in the literature (Lips, Volk et al. 2005).\n(§2) Chinese hamster ovary cells, previously engineered to over-express a specific human Oct transporter were used in the assay. In this example, the effect of a specific concentration of an amino sterol is determined on the intracellular uptake of radiolabelled 1-methyl-4-phenylpyridine (MPP) (at 0.01 μM), measured after a 1-second exposure. […] IC50 refers to the concentration of squalamine or 1436 required to inhibit MPP uptake by 50%. Table 1 below describes the affinity of squalamine and Amino sterol 1436 for human organic cation transporters (Human Oct 1, Human Oct 2, and Human Oct 3) based upon the MPP uptake inhibition assay."}, "Human Oct 2": {"biological_target": "T2, Human Oct 2 (Homo sapiens, UniProt O15244)", "T2 sequence (O15244 1-555)": "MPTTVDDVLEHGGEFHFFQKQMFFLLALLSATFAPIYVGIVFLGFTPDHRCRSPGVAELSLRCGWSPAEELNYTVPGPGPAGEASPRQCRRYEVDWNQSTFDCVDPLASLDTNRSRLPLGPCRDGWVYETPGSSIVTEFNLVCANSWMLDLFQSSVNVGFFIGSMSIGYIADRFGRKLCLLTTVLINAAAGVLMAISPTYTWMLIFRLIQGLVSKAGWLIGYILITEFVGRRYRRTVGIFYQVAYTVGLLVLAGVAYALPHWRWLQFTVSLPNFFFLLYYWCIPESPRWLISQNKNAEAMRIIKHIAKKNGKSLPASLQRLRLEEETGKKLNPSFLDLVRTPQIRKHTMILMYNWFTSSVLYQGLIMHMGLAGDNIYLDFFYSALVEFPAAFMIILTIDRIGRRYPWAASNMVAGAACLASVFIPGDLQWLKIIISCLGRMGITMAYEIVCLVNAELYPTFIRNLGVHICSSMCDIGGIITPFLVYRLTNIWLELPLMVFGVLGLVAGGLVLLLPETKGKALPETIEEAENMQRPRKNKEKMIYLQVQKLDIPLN", "assay": "MPP uptake inhibition (transport competition) assay in CHO cells over-expressing a human Oct transporter", "type": "cell-based", "method": "as §1, §2"}, "Human Oct 3": {"biological_target": "T3, Human Oct 3 (Homo sapiens, UniProt O75751)", "T3 sequence (O75751 1-556)": "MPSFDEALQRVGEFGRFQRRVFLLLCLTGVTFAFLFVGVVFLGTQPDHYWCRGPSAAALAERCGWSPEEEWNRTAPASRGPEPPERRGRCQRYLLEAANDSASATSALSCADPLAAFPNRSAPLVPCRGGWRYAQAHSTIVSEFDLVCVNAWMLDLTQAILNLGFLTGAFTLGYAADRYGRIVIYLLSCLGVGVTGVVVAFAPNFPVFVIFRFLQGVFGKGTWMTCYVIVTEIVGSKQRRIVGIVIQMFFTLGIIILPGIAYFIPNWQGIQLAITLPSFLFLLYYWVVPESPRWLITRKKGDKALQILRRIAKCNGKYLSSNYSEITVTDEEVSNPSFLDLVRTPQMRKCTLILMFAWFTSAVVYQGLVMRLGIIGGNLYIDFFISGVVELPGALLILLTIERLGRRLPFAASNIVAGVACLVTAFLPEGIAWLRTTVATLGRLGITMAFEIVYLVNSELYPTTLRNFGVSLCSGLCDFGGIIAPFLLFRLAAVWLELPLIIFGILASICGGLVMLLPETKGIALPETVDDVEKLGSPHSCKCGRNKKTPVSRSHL", "assay": "MPP uptake inhibition (transport competition) assay in CHO cells over-expressing a human Oct transporter", "type": "cell-based", "settings": "100 μM aminosterol, radiolabelled MPP 0.01 μM, 1-second exposure", "method": "as §1, §2"}, "[1]": {"tested_on": "Eastern Equine Encephalitis Virus", "type": "in vivo"}, "Yellow Fever": {"tested_on": "Yellow Fever", "type": "in vivo, Syrian hamsters"}, "HUVECs": {"tested_on": "HUVECs", "assay": "Thrombin induced stress fiber formation in endothelial cells", "type": "cell-based, human", "settings": "aminosterol 20 μM, thrombin 20 ng/ml, 2 hours", "method": "The basic methods have been published (Williams, […] et al. 2001). HUVECs were grown on fibronectin-covered coverslips in EGM medium. […] Following a rinse, the cells were exposed to a 1:400 dilution of an FITC-goat antimurine antibody and 250 ng/ml TRITC phalloidin. The stained coverslips were visualized by fluorescence microscopy."}, "[2]": {"settings": "cited from earlier work"}, "[3]": {"tested_on": "Human umbilical endothelial cells", "assay": "Kinetics of uptake of 3H-labelled aminosterol into endothelial cells", "settings": "for Uptake into endothelial cells: 1 μg/ml 3H-aminosterol"}, "[4]": {"settings": "cited from earlier work", "remark": "listed apart in the source"}, "[5]": {"tested_on": "human immunodeficiency virus (HIV)"}, "[6]": {"settings": "100 μM aminosterol, radiolabelled MPP 0.01 μM, 1-second exposure"}, "[7]": {"settings": "read-out: IC50 (concentration required to inhibit MPP uptake by 50%)"}, "[8]": {"settings": "500 mg/m(2)/day, 5-day continuous i.v. infusion"}}, "note": "Read-outs that look alike come from different tables or passages of the source.", "data": [{"molecule": "CC(C)[C@@H](CC[C@@H](C)[C@H]1CC[C@H]2[C@@H]3[C@H](O)C[C@H]4C[C@@H](NCCCNCCCCN)CC[C@]4(C)[C@H]3CC[C@]12C)OS(=O)(=O)O", "note": "[Squalamine, squalamine]", "values": [{"measurement": "% Inhibition of MPP uptake caused by 100 μM", "setting": "Human Oct 1; [6]", "value": 25, "unit": "%"}, {"measurement": "IC50", "setting": "Human Oct 1; [7]", "value": 34, "unit": "µM"}, {"measurement": "% Inhibition of MPP uptake caused by 100 μM", "setting": "Human Oct 2; [6]", "value": 40, "unit": "%"}, {"measurement": "IC50", "setting": "Human Oct 2; [7]", "value": 50, "unit": "µM"}, {"measurement": "% Inhibition of MPP uptake caused by 100 μM", "setting": "Human Oct 3", "value": 60, "unit": "%"}, {"measurement": "Efficacy in mice", "setting": "[1]", "value": "ineffective"}, {"measurement": "Animals cured (survival through day 21)", "setting": "Yellow Fever; squalamine 15 mg/kg/day s.c. from 1 dpi to 8 dpi", "value": 60, "unit": "%"}, {"measurement": "Animals cured (survival through day 21)", "setting": "Yellow Fever; squalamine 30 mg/kg/day s.c. from 1 dpi to 8 dpi", "value": 60, "unit": "%"}, {"measurement": "Animals cured (survival through day 21)", "setting": "Yellow Fever; squalamine 30 mg/kg/day s.c. from 2 dpi to 9 dpi", "value": 40, "unit": "%"}, {"measurement": "Disruption of thrombin induced stress fiber formation", "setting": "HUVECs", "value": "Yes"}, {"measurement": "Disruption of thrombin induced stress fiber formation", "setting": "HUVECs; listed as squalamine", "value": "disrupt thrombin induced stress fiber formation"}, {"measurement": "Mean clearance", "setting": "[2]; [8]", "value": "2.67 liters/h/m(2)"}, {"measurement": "Mean half-life", "setting": "[2]; [8]", "value": 9.46, "unit": "h"}, {"measurement": "Mean volume of distribution", "setting": "[2]; [8]", "value": "36.84 liters/m(2)"}, {"measurement": "Steady-state concentrations", "setting": "[2]; [8]", "value": 20.08, "unit": "micro g/ml"}, {"measurement": "Patients with dose-limiting grade 4 hyperbilirubinemia and grade 3 neurosensory changes", "setting": "[2]; 500 mg/m(2)/day", "value": "one of seven"}, {"measurement": "Tolerability", "setting": "[2]; 500 mg/m(2)/day", "value": "well tolerated"}, {"measurement": "Patients who developed grade 4 hyperbilirubinemia", "setting": "[2]; 700 mg/m(2)/day", "value": "two of three"}, {"measurement": "Dose dependence of pharmacokinetics", "setting": "[2]; 6 to 700 mg/m(2)/day", "value": "dose-proportional"}, {"measurement": "Uptake into endothelial cells", "setting": "[3]; 5 min", "value": "250 Molecules/cell (×10^−6)"}, {"measurement": "Uptake into endothelial cells", "setting": "[3]; 30 min", "value": "400 Molecules/cell (×10^−6)"}, {"measurement": "Uptake into endothelial cells", "setting": "[3]; 60 min", "value": "500 Molecules/cell (×10^−6)"}, {"measurement": "Uptake into endothelial cells", "setting": "[3]; 120 min", "value": "500 Molecules/cell (×10^−6)"}, {"measurement": "Uptake into endothelial cells", "setting": "[3]; 180 min", "value": "600 Molecules/cell (×10^−6)"}, {"measurement": "Entry into the HUVEC relative to Aminosterol 1436", "setting": "[3]; squalamine versus Aminosterol 1436", "value": "over 2 orders of magnitude"}, {"measurement": "Patients with dose-limiting toxicity (grade 3/4 arthralgia, myalgia, neutropenia)", "setting": "[4]; 400 mg/m(2)/day with paclitaxel and carboplatin", "value": "two of three"}, {"measurement": "Tolerability of the combination", "setting": "[4]; continuous daily for 5 days, with paclitaxel and carboplatin on day 1", "value": "well tolerated"}, {"measurement": "Inhibition of HIV infection", "setting": "[5]", "value": "about 50%"}, {"measurement": "Toxicity towards the HeLa cells", "setting": "[5]; 30 μg/ml", "value": "no evidence of toxicity"}]}]}
